Source: ChEMBL document CHEMBL6153054, “Synthesis and discovery of simplified pleurotin analogs bearing tricyclic core as novel thioredoxin reductase inhibitors” (Eur J Med Chem, 2025)
Values belong to the compound of their own block, whether it stands above or below them. Calls of active or inactive are those of the source. The calls are words filed in the database; no cut-off is given here.

Key:
HepG2 [1] = assay: Antiproliferative activity against human HepG2 cells assessed as reduction in cell growth after 72 hrs by MTT assay; assay type: functional, cell-based; details: HepG2, 72 h
MCF7 = assay: Antiproliferative activity against human MCF7 cells assessed as reduction in cell growth after 72 hrs by MTT assay; assay type: functional, cell-based; details: MCF7, 72 h
Homo sapiens [2] = organism: Homo sapiens; assay: Inhibition of TrxR (unknown origin) at 5 uM by […]-reagent based assay relative to control
[3] = Inhibition of TrxR (unknown origin) by […]-reagent based assay; set-up: species or system Homo sapiens
[4] = Inhibition of TrxR (unknown origin); set-up: species or system Homo sapiens
HepG2 [5] = assay: Induction of apoptosis in human HepG2 cells assessed as viable cells at 50 uM incubated for 24 hrs by Annexin V/PI staining based flow cytometry analysis (reference value: 94.9%); assay type: functional; details: read-out: Activity
HepG2 [6] = assay: Induction of apoptosis in human HepG2 cells assessed as late apoptotic cells at 50 uM incubated for 24 hrs by Annexin V/PI staining based flow cytometry analysis (reference value: 1.30%); assay type: functional
HepG2 [7] = assay: Induction of apoptosis in human HepG2 cells assessed as viable cells at 12.5 uM incubated for 24 hrs by Annexin V/PI staining based flow cytometry analysis (reference value: 94.9%); assay type: functional; details: read-out: Activity
HepG2 [8] = assay: Induction of apoptosis in human HepG2 cells assessed as early apoptotic cells at 12.5 uM incubated for 24 hrs by Annexin V/PI staining based flow cytometry analysis (reference value: 3.64%); assay type: functional
HepG2 [9] = assay: Induction of apoptosis in human HepG2 cells assessed as early apoptotic cells incubated for 24 hrs by Annexin V/PI staining based flow cytometry analysis; assay type: functional, cell-based; details: dose 12.5-50 µM
Homo sapiens [10] = organism: Homo sapiens; assay: Inhibition of TrxR (unknown origin) at 8 uM by […]-reagent based assay relative to control
HepG2 [11] = assay: Induction of apoptosis in human HepG2 cells assessed as necrotic cells at 25 uM incubated for 24 hrs by Annexin V/PI staining based flow cytometry analysis (reference value: 0.21%); assay type: functional
HepG2 [12] = assay: Induction of intracellular ROS generation in human HepG2 cells at 6.25 uM incubated for 3 to 12 hrs by DCFH-DA probe based fluorescence microscopic analysis; assay type: functional, cell-based; details: time 3-12 hrs
HepG2 [13] = assay: Induction of apoptosis in human HepG2 cells assessed as early apoptotic cells at 50 uM incubated for 24 hrs by Annexin V/PI staining based flow cytometry analysis (reference value: 3.64%); assay type: functional
HepG2 [14] = assay: Induction of apoptosis in human HepG2 cells assessed as viable cells at 25 uM incubated for 24 hrs by Annexin V/PI staining based flow cytometry analysis (reference value: 94.9%); assay type: functional; details: read-out: Activity
HepG2 [15] = assay: Induction of apoptosis in human HepG2 cells assessed as necrotic cells at 12.5 uM incubated for 24 hrs by Annexin V/PI staining based flow cytometry analysis (reference value: 0.21%); assay type: functional
HepG2 [16] = assay: Induction of apoptosis in human HepG2 cells assessed as necrotic cells at 50 uM incubated for 24 hrs by Annexin V/PI staining based flow cytometry analysis (reference value: 0.21%); assay type: functional
HepG2 [17] = assay: Inhibition of TrxR in human HepG2 cells assessed as decrease in green fluorescence at 12.5 to 50 uM incubated for 24 hrs by immunofluorescence assay; assay type: cell-based; details: dose 12.5-50 µM
HepG2 [18] = assay: Induction of apoptosis in human HepG2 cells assessed as late apoptotic cells at 12.5 uM incubated for 24 hrs by Annexin V/PI staining based flow cytometry analysis (reference value: 1.30%); assay type: functional
HepG2 [19] = assay: Induction of intracellular ROS generation in human HepG2 cells assessed as increase in green fluorescence at 6.25 to 12.5 uM incubated for 6 hrs by DCFH-DA probe based fluorescence microscopic analysis; assay type: functional, cell-based; details: dose 6.25-12.5 µM
HepG2 [20] = assay: Induction of apoptosis in human HepG2 cells assessed as late apoptotic cells incubated for 24 hrs by Annexin V/PI staining based flow cytometry analysis; assay type: functional, cell-based; details: dose 12.5-50 µM
HepG2 [21] = assay: Induction of intracellular ROS generation in human HepG2 cells assessed as increase in red fluorescence at 6.25 to 12.5 uM incubated for 6 hrs by DHE probe based fluorescence microscopic analysis; assay type: functional, cell-based; details: dose 6.25-12.5 µM
HepG2 [22] = assay: Induction of apoptosis in human HepG2 cells assessed as late apoptotic cells at 25 uM incubated for 24 hrs by Annexin V/PI staining based flow cytometry analysis (reference value: 1.30%); assay type: functional
HepG2 [23] = assay: Induction of apoptosis in human HepG2 cells assessed as early apoptotic cells at 25 uM incubated for 24 hrs by Annexin V/PI staining based flow cytometry analysis (reference value: 3.64%); assay type: functional
HepG2 [24] = assay: Inhibition of TrxR in human HepG2 cells incubated for 24 hrs by immunofluorescence assay; assay type: cell-based; details: dose 12.5-50 µM
[25] = Inhibition of TrxR in human SGC-7901 cells; assay type: cell-based

Structure (SMILES): CCc1ccc([C@@]2(O)CCC[C@@]3(C)CC4=C(C[C@H]32)C(=O)C=CC4=O)cc1
IC50 (HepG2 [1]): 46.5 µM
IC50 (MCF7): 19.6 µM
inhibition (Homo sapiens [2]): 19.6%

Structure (SMILES): C[C@@]12CCC[C@](O)(c3ccccn3)[C@@H]1CC1=C(C2)C(=O)C=CC1=O
IC50 (HepG2 [1]): 45.3 µM
IC50 (MCF7): 28.8 µM
inhibition (Homo sapiens [2]): 23.5%

Structure (SMILES): Cc1ccc([C@@]2(O)CCC[C@@]3(C)CC4=C(C[C@H]32)C(=O)C=CC4=O)cc1
IC50 (HepG2 [1]): > 100 µM
IC50 (MCF7): 36.9 µM
inhibition (Homo sapiens [2]): 11.8%

Structure (SMILES): C=C1C(=O)O[C@H]2[C@H]1CCC(C)=C1CC[C@@](C)(O)[C@@H]12 [MICHELIOLIDE]
IC50 [3]: 6.23 µM
IC50 (HepG2 [1]): 10.9 µM
IC50 [4]: 6.23 µM
IC50 (MCF7): 23.4 µM
inhibition (Homo sapiens [2]): 34.2%

Structure (SMILES): C[C@@]12CCC[C@](O)(c3ccc(C#N)cc3)[C@@H]1CC1=C(C2)C(=O)C=CC1=O
IC50 [3]: 3.5 µM
IC50 (HepG2 [1]): 19.4 µM
viability at 50 µM (HepG2 [5]): 54%
Activity (HepG2 [6]): 12.6%
viability at 12.5 µM (HepG2 [7]): 92.2%
Activity (HepG2 [8]): 5.54%
Activity (HepG2 [9]): Dose-dependent-effect
inhibition (Homo sapiens [10]): 100%
Activity (HepG2 [11]): 1.39%
Activity (HepG2 [12]): Active
Activity (HepG2 [13]): 22.7%
viability at 25 µM (HepG2 [14]): 81.3%
Activity (HepG2 [15]): 0.3%
Activity (HepG2 [16]): 10.7%
IC50 (MCF7): 28.2 µM
inhibition (HepG2 [17]): Active
Activity (HepG2 [18]): 1.82%
Activity (HepG2 [19]): Active
inhibition (Homo sapiens [2]): 71.9%
Activity (HepG2 [20]): Dose-dependent-effect
Activity (HepG2 [21]): Active
Activity (HepG2 [22]): 3.39%
Activity (HepG2 [23]): 13.9%
inhibition (HepG2 [24]): Dose-dependent-effect

Structure (SMILES): C=CC(=O)O[C@@H]1C2=C(C[C@]3(C)CCCC(=O)[C@H]13)C(=O)C=CC2=O
IC50 (HepG2 [1]): > 100 µM
IC50 (MCF7): > 100 µM

Structure (SMILES): C[C@H]1CO[C@H]2C3=C(C(=O)C=CC3=O)[C@@H]3OC(=O)[C@H]4CC[C@@H]5[C@H]1CC[C@@]52[C@@H]43
IC50 (HepG2 [1]): 55 µM
IC50 [4]: 0.17 µM
IC50 (MCF7): > 100 µM

Structure (SMILES): COc1ccc([C@@]2(O)CCC[C@@]3(C)CC4=C(C[C@H]32)C(=O)C=CC4=O)cc1
IC50 (HepG2 [1]): > 100 µM
IC50 (MCF7): 17.4 µM
inhibition (Homo sapiens [2]): 9.8%

Structure (SMILES): COc1ccccc1/C=C/C(=O)/C=C/c1ccccc1OC
IC50 [25]: ~50 µM

Structure (SMILES): C[C@@]12CCC[C@](O)(c3ccc(C(F)(F)F)cc3)[C@@H]1CC1=C(C2)C(=O)C=CC1=O
IC50 (HepG2 [1]): 69.5 µM
IC50 (MCF7): 13.6 µM
inhibition (Homo sapiens [2]): 15.7%

Second part, the compound after the results:

IC50 (HepG2 [1]): 48.5 µM
IC50 (MCF7): 32.4 µM
inhibition (Homo sapiens [2]): 60.4%
Structure (SMILES): C[C@@]12CCCC(=O)[C@@H]1[C@H](O)C1=C(C2)C(=O)C=CC1=O

IC50 (HepG2 [1]): 27.8 µM
IC50 (MCF7): 43.3 µM
inhibition (Homo sapiens [2]): 21.6%
Structure (SMILES): C[C@@]12CCC[C@@H](C(=O)O)[C@@H]1CC1=C(C2)C(=O)C=CC1=O

IC50 (HepG2 [1]): > 100 µM
IC50 (MCF7): 59.3 µM
inhibition (Homo sapiens [2]): 19.6%
Structure (SMILES): C=C1CCC[C@@]2(C)CC3=C(C[C@@H]12)C(=O)C=CC3=O [CORDIACHROME B]

IC50 (HepG2 [1]): 62.6 µM
IC50 (MCF7): 30.7 µM
inhibition (Homo sapiens [2]): 18.5%
Structure (SMILES): C[C@@]12CCCC(=O)[C@@H]1CC1=C(C2)C(=O)C=CC1=O

IC50 (HepG2 [1]): 34 µM
IC50 (MCF7): 24.2 µM
inhibition (Homo sapiens [2]): 19.6%
Structure (SMILES): C[C@@]12CCC[C@](O)(c3ccccc3)[C@@H]1CC1=C(C2)C(=O)C=CC1=O

IC50 (HepG2 [1]): 59.6 µM
IC50 (MCF7): 16.4 µM
inhibition (Homo sapiens [2]): 19.7%
Structure (SMILES): C=CC(=O)O[C@@H]1CCC[C@@]2(C)CC3=C(C[C@@H]12)C(=O)C=CC3=O

IC50 (HepG2 [1]): 36.6 µM
IC50 (MCF7): 15.6 µM
inhibition (Homo sapiens [2]): 34.9%
Structure (SMILES): C[C@@]12CCC[C@@H](O)[C@@H]1CC1=C(C2)C(=O)C=CC1=O

IC50 (HepG2 [1]): 71.7 µM
IC50 (MCF7): 43.7 µM
inhibition (Homo sapiens [2]): 13.7%
Structure (SMILES): C[C@@]12CCC[C@@H](CO)[C@@H]1CC1=C(C2)C(=O)C=CC1=O

IC50 (HepG2 [1]): > 100 µM
IC50 (MCF7): > 100 µM
Structure (SMILES): C[C@@]12CCC[C@](O)(c3ccoc3)[C@@H]1CC1=C(C2)C(=O)C=CC1=O
